One test deals with T1, 5-lipoxygenase (Rattus norvegicus, UniProt P12527).
T1 construct: host or cells: RBL-1 (rat basophilic leukemia)
T1 sequence (P12527 1-673): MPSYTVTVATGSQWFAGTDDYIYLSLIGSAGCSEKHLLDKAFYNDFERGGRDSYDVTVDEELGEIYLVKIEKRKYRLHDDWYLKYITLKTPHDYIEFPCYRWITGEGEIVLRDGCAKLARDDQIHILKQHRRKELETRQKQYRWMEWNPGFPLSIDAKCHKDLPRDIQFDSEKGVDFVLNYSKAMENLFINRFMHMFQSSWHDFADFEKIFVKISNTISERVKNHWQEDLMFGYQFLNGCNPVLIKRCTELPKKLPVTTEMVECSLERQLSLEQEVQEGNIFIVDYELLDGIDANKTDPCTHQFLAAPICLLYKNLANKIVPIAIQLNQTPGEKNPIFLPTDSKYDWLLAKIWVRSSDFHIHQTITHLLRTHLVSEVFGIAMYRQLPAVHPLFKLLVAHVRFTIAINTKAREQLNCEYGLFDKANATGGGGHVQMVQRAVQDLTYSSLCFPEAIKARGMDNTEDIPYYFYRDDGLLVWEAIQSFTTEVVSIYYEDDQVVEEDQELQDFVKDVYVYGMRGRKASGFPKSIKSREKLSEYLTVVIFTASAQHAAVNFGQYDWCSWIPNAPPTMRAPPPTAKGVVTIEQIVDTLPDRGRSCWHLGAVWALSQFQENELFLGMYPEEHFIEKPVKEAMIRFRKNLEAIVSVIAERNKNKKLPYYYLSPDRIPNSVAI
The test is described as follows: ARBL whole cell 5-lipoxygenase assay: inhibition of LTB4 formation in A23187-stimulated RBL-1 cells. It counts as cell-based. The settings on record: RBL-1 whole cells; for pIC50: RIA of LTB4. As to the method: (§1) ARBL/ARBC WHOLE CELL 5-LIPOXYGENASE AND CYCLOOXYGENASE ASSAYS
(§2) The rat basophilic leukemia cell line (RBL-1) was obtained from the American Type Culture Collection (Rockville, MD).
(§3) Radioimmunoassay (RIA) kits of LTB4 and PGF2α were obtained from Amersham (Arlington Heights, Ill.) and Seragen (Boston, Mass.), respectively.
(§4) RBL-1 cells are grown in suspension culture in Eagle's minimum essential medium supplemented with 12% fetal bovine serum at 37° C. in an incubator supplied with air 5% carbon dioxide. Cells are harvested by centrifugation. They are washed with cold phosphate-buffered saline, pH 7.4 (PBS; NaCl, 7.1 g; Na2 HPO4, 1.15 g; KH2 PO4, 0.2 g; and KCl, 0.2 g/L). Cells are finally suspended in PBS containing 1.0 mM calcium at a density of 2 × 10^6 cells/mL Cells are incubated and without test agent (in DMSO) (1% DMSO is without effect on arachidonic acid metabolism) for 10 minutes at room temperature. Calcium ionophore A23187 (5 μM) is added and cells are incubated for 7 minutes at 37° C. The reaction is stopped by chilling the tubes on ice for 10 minutes. Cells are separated by centrifugation and the supernatant is stored at -20° C. Aliquots (100 μL) are analyzed for LTB4 and PGF2α using radioimmunoassay kits as provided by the supplier.
(§5) Table 1 contains biochemical data for compounds of Formula I obtained from this whole cell assay as amount of inhibition at 10 μM or IC50 s which are calculated as the concentration of a test compound in micromoles (μM) causing 50% inhibition of LTB4 or PGF2α formation.

The target of another test is T2, cyclooxygenase (Rattus norvegicus, UniProt Q63921).
T2 construct: host or cells: RBL-1 (rat basophilic leukemia)
T2 sequence (Q63921 27-602): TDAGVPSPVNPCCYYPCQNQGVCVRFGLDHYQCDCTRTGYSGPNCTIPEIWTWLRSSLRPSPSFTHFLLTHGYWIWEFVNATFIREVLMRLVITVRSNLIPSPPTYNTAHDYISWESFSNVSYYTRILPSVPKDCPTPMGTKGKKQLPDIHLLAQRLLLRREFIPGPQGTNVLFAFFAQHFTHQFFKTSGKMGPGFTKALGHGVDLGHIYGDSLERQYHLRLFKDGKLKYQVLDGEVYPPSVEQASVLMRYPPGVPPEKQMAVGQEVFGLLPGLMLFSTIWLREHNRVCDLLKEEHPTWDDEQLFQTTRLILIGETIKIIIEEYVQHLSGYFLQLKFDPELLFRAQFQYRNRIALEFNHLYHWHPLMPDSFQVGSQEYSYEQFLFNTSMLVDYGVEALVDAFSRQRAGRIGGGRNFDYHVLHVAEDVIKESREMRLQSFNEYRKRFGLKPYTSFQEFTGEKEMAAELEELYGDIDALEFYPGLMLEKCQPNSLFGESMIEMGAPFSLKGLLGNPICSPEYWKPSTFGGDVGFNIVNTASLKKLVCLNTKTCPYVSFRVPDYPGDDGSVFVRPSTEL
The test is described as follows: ARBC whole cell cyclooxygenase assay: inhibition of PGF2α formation in A23187-stimulated RBL-1 cells. The following applies: RBL-1 whole cells; for pIC50: RIA of PGF2α. It counts as cell-based. The method, then: as §1, §2, §3, §4, §5

Setting [1] is: read-out: ARBL, amount of inhibition of LTB4 at 10 μM.
The mark [2] stands for this setting: read-out: ARBC, inhibition of PGF2α at 10 μM (class symbol).
The mark [3] stands for this setting: read-out: ARBL, inhibition of LTB4 at 10 μM (class symbol).

Structures are written as SMILES. pIC50: −log10 of the molar value. Like-named read-outs stand apart in the source and are kept apart here.

The pIC50 is −log10 of the IC50, conventionally taken in molar units. Take `CC(=O)N(O)C(C)c1cccc(Nc2ccccc2-c2n[nH]c(=O)o2)c1Cl` (stereo not shown) [Example 13]: the pIC50 was 6.17 against 5-lipoxygenase and 5.73 on cyclooxygenase.
By inhibition is commonly meant how much of the control response was suppressed. For the compound `CC(=O)N(O)C(C)c1cccc(Nc2ccccc2-c2n[nH]c(=S)o2)c1C` (stereo not shown) [Example 8, N-[1-[3-[[2-(4,5-dihydro-5 thioxo 1,3,4-oxadiazol-2 yl)phenyl]amino]-2 methylphenyl]ethyl]-N-hydroxyacetamide], the figures for the inhibition at 10 µM at 5-lipoxygenase (setting [1]) and at cyclooxygenase (setting [2]) were 66% and < 40%, respectively.
On to `CNC(=O)N(O)C(C)c1cccc(Nc2ccccc2-c2n[nH]c(=S)o2)c1Cl` (stereo not shown) [Example 12, N-[1-[2-chloro-3-[[(4,5-dihydro-5-thioxo-1,3,4-oxadiazol-2-yl)phenyl]amino]phenyl]ethyl]-N-hydroxy-N'-methylurea], for which the inhibition at 10 µM is < 40% at 5-lipoxygenase (setting [3]) and 100% at cyclooxygenase (read-out: ARBC, amount of inhibition of PGF2α at 10 μM).
As for `CNC(=O)N(O)C(C)c1cccc(Nc2ccccc2-c2n[nH]c(=O)o2)c1Cl` (stereo not shown) [Example 16], the results for the pIC50 against 5-lipoxygenase and at cyclooxygenase were 5.73 and 6.44, respectively.
With `CC(=O)N(O)C(C)c1cccc(Nc2ccccc2-c2nnc(N)o2)c1Cl` (stereo not shown) [Example 17, N-[1-[3-[[2-(5-Amino-1,3,4-oxadiazol-2-yl)phenyl]amino]-2-chlorophenyl]ethyl]-N-hydroxyacetamide], the inhibition at 10 µM at 5-lipoxygenase (setting [1]) is 100%; at cyclooxygenase (setting [2]) it was < 40%.
The matching figures for `CC(=O)N(O)C(C)c1cccc(Nc2ccccc2-c2n[nH]c(=O)o2)c1` (stereo not shown) [Example 14, N-[1-[3-[[2-(4,5-dihydro-5-oxo-1,3,4-oxadiazol-2-yl)phenyl]amino]phenyl]ethyl]-N-hydroxyacetamide]: 100% and < 40%.
Take `CC(=O)N(O)C(C)c1cccc(Nc2ccccc2-c2n[nH]c(=S)o2)c1` (stereo not shown) [Example 10, N-[1-[3-[[2-(4,5-dihydro-5-thioxo-1,3,4-oxadiazol-2-yl)phenyl]amino]phenyl]ethyl]-N-hydroxyacetamide]: the inhibition at 10 µM on 5-lipoxygenase (setting [3]) and at cyclooxygenase (setting [2]) was < 40% in each case.
Turning to `CCOC(=O)N(O)C(C)c1cccc(Nc2ccccc2-c2n[nH]c(=O)o2)c1Cl` (stereo not shown) [Example 15, Ethyl ester of [1-[2-chloro-3-[[2-(4,5-dihydro-5-oxo-1,3,4-voxadiazol-2-yl)phenyl]amino]phenyl]-ethyl]hydroxycarbamic acid], the pIC50 against 5-lipoxygenase is 5.96; against cyclooxygenase it was 6.07.
The matching figures for `CCOC(=O)N(O)C(C)c1cccc(Nc2ccccc2-c2n[nH]c(=S)o2)c1Cl` (stereo not shown) [Example 11, Ethyl ester of [1-[2-chloro-3-[[2-(4,5-dihydro-5-thioxo-1,3,4 oxadiazol-2-yl)phenyl]amino]phenyl]-ethyl]hydroxycarbamic acid]: 5.94 and 6.04.
Take `CC(=O)N(O)C(C)c1cccc(Nc2ccccc2-c2n[nH]c(=S)o2)c1Cl` (stereo not shown) [Example 7, N-[1-[3-[[2-(4,5-Dihydro-5-thioxo-1,3,4 oxadiazol-2-yl)phenyl]amino]-2-chlorophenyl]ethyl]-N-hydroxy Acetamide]: the pIC50 is 5.02 against 5-lipoxygenase and 5.97 on cyclooxygenase.
With `CC(=O)N(O)C(C)c1c(C)ccc(Nc2ccccc2-c2n[nH]c(=S)o2)c1C` (stereo not shown) [Example 9, N-[1-[3-[[2-(4,5-dihydro-5-thioxo 1,3,4-oxadiazol-2 yl)phenyl]amino]-2,6 dimethylphenyl]ethyl]-N-hydroxyacetamide], the results for the pIC50 at 5-lipoxygenase and against cyclooxygenase were 5.23 and < 5.00, respectively.
